According to US7858635B2 (priority 2005, dated 2010):

Legend:
M4 muscarinic receptor = target: T1, M4 muscarinic receptor (Homo sapiens, UniProt P08173); experiment: Functional mobilization of intracellular calcium (FLIPR, Fluo-3), M4-CHO cells; assay type: cell-based; settings: for Emax: compound nos. 455-509, 100% efficacy is the maximum response obtained with the Carbachol control, read-out: M4 Efficacy; for M4 Activity: compounds 455-509
T1 construct: expressed in transfected cells; host or cells: CHO cells (M4-CHO, under puromycin, zeocin and blasticidin selection)
T1 sequence (P08173 1-479): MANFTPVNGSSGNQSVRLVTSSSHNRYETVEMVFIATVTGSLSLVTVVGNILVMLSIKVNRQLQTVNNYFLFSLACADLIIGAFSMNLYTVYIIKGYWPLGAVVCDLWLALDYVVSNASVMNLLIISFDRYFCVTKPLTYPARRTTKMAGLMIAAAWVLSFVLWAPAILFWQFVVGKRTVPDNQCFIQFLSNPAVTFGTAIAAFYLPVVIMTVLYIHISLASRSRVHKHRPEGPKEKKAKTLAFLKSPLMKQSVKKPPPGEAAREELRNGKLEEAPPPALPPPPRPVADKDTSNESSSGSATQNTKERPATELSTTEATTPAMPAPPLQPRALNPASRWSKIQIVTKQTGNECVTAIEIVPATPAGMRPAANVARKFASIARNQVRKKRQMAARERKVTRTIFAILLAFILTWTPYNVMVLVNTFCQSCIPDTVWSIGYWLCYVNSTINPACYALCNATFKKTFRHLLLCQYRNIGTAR
Method in brief: (§1)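 Intracellular calcium was tracked by fluorescence (488/540 nm) over 60 sec after compound addition to dye-loaded CHO cells expressing the receptor. Inhibitory activity used a 15 min pre-incubation before carbachol at the subtype EC80.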

M1 muscarinic receptor = target: T2, M1 muscarinic receptor (Homo sapiens, UniProt P11229); experiment: Functional mobilization of intracellular calcium (FLIPR, Fluo-3), M1-CHO cells; assay type: cell-based; settings: for Emax: compound nos. 455-509, 100% efficacy is the maximum response obtained with the Carbachol control, read-out: M1 Efficacy; for M1 Activity: compounds 455-509
T2 construct: expressed in transfected cells; host or cells: CHO cells (M1-CHO, under zeocin and G418 selection)
T2 sequence (P11229 1-460): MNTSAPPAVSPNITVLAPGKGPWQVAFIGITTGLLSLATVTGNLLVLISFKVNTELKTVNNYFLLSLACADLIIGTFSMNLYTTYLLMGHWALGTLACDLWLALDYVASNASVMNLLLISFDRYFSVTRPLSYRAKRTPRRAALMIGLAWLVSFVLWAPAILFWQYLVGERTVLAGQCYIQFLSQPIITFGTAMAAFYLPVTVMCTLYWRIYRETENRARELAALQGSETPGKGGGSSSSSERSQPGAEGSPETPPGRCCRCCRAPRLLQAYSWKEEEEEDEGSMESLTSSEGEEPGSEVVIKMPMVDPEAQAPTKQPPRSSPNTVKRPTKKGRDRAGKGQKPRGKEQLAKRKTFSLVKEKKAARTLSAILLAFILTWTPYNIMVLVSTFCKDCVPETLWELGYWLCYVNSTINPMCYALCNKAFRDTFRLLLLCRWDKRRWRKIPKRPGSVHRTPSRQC
Method in brief: as §1

CCc1nsc(N2C3CCC2CC(N2CCC4(CCN(C(=O)N(C)C)c5ccccc54)CC2)C3)n1 (centres unmarked) [compound 473]
Emax (M4 muscarinic receptor): 25 to 100%
M4 Activity (M4 muscarinic receptor): ++ (activity was measured to be between 2.0 μM and 5.0 μM)
Emax (M1 muscarinic receptor): > 100%
M1 Activity (M1 muscarinic receptor): +++ (activity was measured to be less than or equal to 2.0 μM)

Cc1nsc(N2CCC(N3CCC4(CCN(C(=O)N(C)C)c5ccccc54)CC3)CC2)n1 [compound 474]
Emax (M4 muscarinic receptor): 25 to 100%
M4 Activity (M4 muscarinic receptor): ++ (activity was measured to be between 2.0 μM and 5.0 μM)
Emax (M1 muscarinic receptor): > 100%
M1 Activity (M1 muscarinic receptor): +++ (activity was measured to be less than or equal to 2.0 μM)

CC(=O)N1CC2(CCN(C3CCN(c4nc(C)cs4)CC3)CC2)c2ccccc21 [compound 475]
Emax (M4 muscarinic receptor): 25 to 100%
M4 Activity (M4 muscarinic receptor): ++ (activity was measured to be between 2.0 μM and 5.0 μM)
Emax (M1 muscarinic receptor): 25 to 100%
M1 Activity (M1 muscarinic receptor): ++ (activity was measured to be between 2.0 μM and 5.0 μM)

CCc1nsc(N2CCC(N3CCC4(CC3)CN(C(=O)N(C)C)c3ccccc34)CC2)n1 [compound 476]
Emax (M4 muscarinic receptor): > 100%
M4 Activity (M4 muscarinic receptor): +++ (activity was measured to be less than or equal to 2.0 μM)
Emax (M1 muscarinic receptor): > 100%
M1 Activity (M1 muscarinic receptor): +++ (activity was measured to be less than or equal to 2.0 μM)

Cc1nsc(N2CC3(CCN(C4CC5CCC(C4)N5c4nc(C)ns4)CC3)c3ccccc32)n1 (centres unmarked) [compound 477]
Emax (M4 muscarinic receptor): 25 to 100%
M4 Activity (M4 muscarinic receptor): ++ (activity was measured to be between 2.0 μM and 5.0 μM)
Emax (M1 muscarinic receptor): > 100%
M1 Activity (M1 muscarinic receptor): +++ (activity was measured to be less than or equal to 2.0 μM)

Cc1cncc(N2CCC(N3CCC4(CC3)CN(C(=O)N(C)C)c3ccccc34)CC2)n1 [compound 478]
Emax (M4 muscarinic receptor): 25 to 100%
M4 Activity (M4 muscarinic receptor): ++ (activity was measured to be between 2.0 μM and 5.0 μM)
Emax (M1 muscarinic receptor): > 100%
M1 Activity (M1 muscarinic receptor): +++ (activity was measured to be less than or equal to 2.0 μM)

CC(=O)N(C)[C@H]1CC2(CCN(C3CCN(c4nc(C)ns4)CC3)CC2)c2ccccc21 [compound 479]
Emax (M4 muscarinic receptor): 25 to 100%
M4 Activity (M4 muscarinic receptor): ++ (activity was measured to be between 2.0 μM and 5.0 μM)
Emax (M1 muscarinic receptor): > 100%
M1 Activity (M1 muscarinic receptor): +++ (activity was measured to be less than or equal to 2.0 μM)

CN(C)C(=O)N1CC2(CCN(C3CCN(c4nccnc4C#N)CC3)CC2)c2cc(F)ccc21 [compound 480]
Emax (M4 muscarinic receptor): 25 to 100%
M4 Activity (M4 muscarinic receptor): ++ (activity was measured to be between 2.0 μM and 5.0 μM)
Emax (M1 muscarinic receptor): 25 to 100%
M1 Activity (M1 muscarinic receptor): ++ (activity was measured to be between 2.0 μM and 5.0 μM)

CN(C)C(=O)N1CC2(CCN(C3CCN(c4cncc(-c5ccccc5O)n4)CC3)CC2)c2ccccc21 [compound 481]
Emax (M4 muscarinic receptor): < 25%
M4 Activity (M4 muscarinic receptor): ++ (activity was measured to be between 2.0 μM and 5.0 μM)
Emax (M1 muscarinic receptor): < 25%
M1 Activity (M1 muscarinic receptor): +++ (activity was measured to be less than or equal to 2.0 μM)

CC(=O)N1CC2(CCN(C3CCN(c4nc(C)ns4)CC3)CC2)c2ccccc21 [compound 482]
Emax (M4 muscarinic receptor): 25 to 100%
M4 Activity (M4 muscarinic receptor): ++ (activity was measured to be between 2.0 μM and 5.0 μM)
Emax (M1 muscarinic receptor): > 100%
M1 Activity (M1 muscarinic receptor): +++ (activity was measured to be less than or equal to 2.0 μM)

CC(=O)N1CCC2(CCN(C3CCN(c4nc(C)cs4)CC3)CC2)c2ccccc21 [compound 483]
Emax (M4 muscarinic receptor): 25 to 100%
M4 Activity (M4 muscarinic receptor): ++ (activity was measured to be between 2.0 μM and 5.0 μM)
Emax (M1 muscarinic receptor): 25 to 100%
M1 Activity (M1 muscarinic receptor): ++ (activity was measured to be between 2.0 μM and 5.0 μM)

CCc1nsc(N2CCC(N3CCC4(CC3)C[C@H](N(C)C(C)=O)c3ccccc34)CC2)n1 [compound 484]
Emax (M4 muscarinic receptor): 25 to 100%
M4 Activity (M4 muscarinic receptor): ++ (activity was measured to be between 2.0 μM and 5.0 μM)
Emax (M1 muscarinic receptor): > 100%
M1 Activity (M1 muscarinic receptor): +++ (activity was measured to be less than or equal to 2.0 μM)

CCc1cncc(N2CCC(N3CCC4(CC3)CN(C(C)=O)c3ccccc34)CC2)n1 [compound 485]
Emax (M4 muscarinic receptor): 25 to 100%
M4 Activity (M4 muscarinic receptor): ++ (activity was measured to be between 2.0 μM and 5.0 μM)
Emax (M1 muscarinic receptor): > 100%
M1 Activity (M1 muscarinic receptor): +++ (activity was measured to be less than or equal to 2.0 μM)

CN(C)C(=O)N1CCC2(CCN(C3CC4CCC(C3)N4c3cnccn3)CC2)c2ccccc21 (centres unmarked) [compound 486]
Emax (M4 muscarinic receptor): 25 to 100%
M4 Activity (M4 muscarinic receptor): ++ (activity was measured to be between 2.0 μM and 5.0 μM)
Emax (M1 muscarinic receptor): > 100%
M1 Activity (M1 muscarinic receptor): +++ (activity was measured to be less than or equal to 2.0 μM)

Cc1ncc(N2CCC(N3CCC4(CC3)CN(C(=O)N(C)C)c3ccccc34)CC2)nc1C [compound 487]
Emax (M4 muscarinic receptor): 25 to 100%
M4 Activity (M4 muscarinic receptor): ++ (activity was measured to be between 2.0 μM and 5.0 μM)
Emax (M1 muscarinic receptor): > 100%
M1 Activity (M1 muscarinic receptor): +++ (activity was measured to be less than or equal to 2.0 μM)

COc1ccc(N2CCC(N3CCC4(CC3)CN(C(=O)N(C)C)c3ccc(F)cc34)CC2)nn1 [compound 488]
Emax (M4 muscarinic receptor): 25 to 100%
M4 Activity (M4 muscarinic receptor): ++ (activity was measured to be between 2.0 μM and 5.0 μM)
Emax (M1 muscarinic receptor): > 100%
M1 Activity (M1 muscarinic receptor): + (activity was measured to be greater than or equal to 5.0 μM)

CCc1nsc(N2CCC(N3CCC4(CCN(C(C)=O)c5ccccc54)CC3)CC2)n1 [compound 489]
Emax (M4 muscarinic receptor): 25 to 100%
M4 Activity (M4 muscarinic receptor): ++ (activity was measured to be between 2.0 μM and 5.0 μM)
Emax (M1 muscarinic receptor): > 100%
M1 Activity (M1 muscarinic receptor): +++ (activity was measured to be less than or equal to 2.0 μM)

COC(=O)N1C2CCC1CC(N1CCC3(CC1)CN(C1CCN(c4nc(C)ns4)CC1)c1ccccc13)C2 (centres unmarked) [compound 490]
Emax (M4 muscarinic receptor): 25 to 100%
M4 Activity (M4 muscarinic receptor): ++ (activity was measured to be between 2.0 μM and 5.0 μM)
Emax (M1 muscarinic receptor): > 100%
M1 Activity (M1 muscarinic receptor): ++ (activity was measured to be between 2.0 μM and 5.0 μM)

CC(=O)N1CC2(CCN(C3CCN(c4nccs4)CC3)CC2)c2ccccc21 [compound 491]
Emax (M4 muscarinic receptor): < 25%
M4 Activity (M4 muscarinic receptor): ++ (activity was measured to be between 2.0 μM and 5.0 μM)
Emax (M1 muscarinic receptor): < 25%
M1 Activity (M1 muscarinic receptor): + (activity was measured to be greater than or equal to 5.0 μM)

CC(=O)N1CCC2(CCN(C3CCN(c4nc(C)ns4)CC3)CC2)c2ccccc21 [compound 492]
Emax (M4 muscarinic receptor): 25 to 100%
M4 Activity (M4 muscarinic receptor): ++ (activity was measured to be between 2.0 μM and 5.0 μM)
Emax (M1 muscarinic receptor): > 100%
M1 Activity (M1 muscarinic receptor): +++ (activity was measured to be less than or equal to 2.0 μM)

Cc1nsc(N2C3CCC2CC(N2CCC4(CC2)CN(C(=O)N(C)C)c2ccccc24)C3)n1 (centres unmarked) [compound 493]
Emax (M4 muscarinic receptor): 25 to 100%
M4 Activity (M4 muscarinic receptor): ++ (activity was measured to be between 2.0 μM and 5.0 μM)
Emax (M1 muscarinic receptor): > 100%
M1 Activity (M1 muscarinic receptor): +++ (activity was measured to be less than or equal to 2.0 μM)

Cc1cncc(N2CCC(N3CCC4(CCN(C(=O)N(C)C)c5ccccc54)CC3)CC2)n1 [compound 494]
Emax (M4 muscarinic receptor): 25 to 100%
M4 Activity (M4 muscarinic receptor): ++ (activity was measured to be between 2.0 μM and 5.0 μM)
Emax (M1 muscarinic receptor): > 100%
M1 Activity (M1 muscarinic receptor): +++ (activity was measured to be less than or equal to 2.0 μM)

CN(C)C(=O)N1CC2(CCN(C3CCN(c4nncs4)CC3)CC2)c2ccccc21 [compound 495]
Emax (M4 muscarinic receptor): 25 to 100%
M4 Activity (M4 muscarinic receptor): + (activity was measured to be greater than or equal to 5.0 μM)
Emax (M1 muscarinic receptor): 25 to 100%
M1 Activity (M1 muscarinic receptor): + (activity was measured to be greater than or equal to 5.0 μM)
